# Values of other authors as cited in patent US10113200B2, “Genes associated with dasatinib sensitivity” (MEMORIAL SLOAN-KETTERING CANCER CENTER, priority 2012, dated 2018).
# Tested on: patients with chronic phase CML
# Details: 100 mg once-daily compared with 70 mg twice-daily
smiles,measurement,value
Cc1nc(Nc2ncc(C(=O)Nc3c(C)cccc3Cl)s2)cc(N2CCN(CCO)CC2)n1 [dasatinib],safety profile,"improves the safety profile, particularly decreasing pleural effusion and thrombocytopenia, while maintaining efficacy"
